System: 885512-296-R-J2-PDC complex spheroid viability
Assay: Anticancer human tumor 885512-296-R-J2-PDC patient-derived breast carcinoma cell line growth inhibition
Details: for IC50: curve of first compound; for viability, T/C: stronger effect = lower value
How it was run: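 Complex spheroids of tumor cells with HUVEC and human MSCs, exposed to iadademstat combined with other agents. Each agent tested in half-log steps from near clinical Cmax (else 10 microM top), DMSO ≤0.25%.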

[1] = second compound 0.1 µM, first compound 0.000316 µM
[2] = second compound 0.1 µM, first compound 0.001 µM
[3] = second compound 0.1 µM, first compound 0.00316 µM
[4] = second compound 0.1 µM, first compound 0.01 µM
[5] = second compound 0.1 µM, first compound 0.0316 µM
[6] = second compound 0.1 µM, first compound 0.1 µM
[7] = second compound 0.316 µM, first compound 0.000316 µM
[8] = second compound 0.316 µM, first compound 0.001 µM
[9] = second compound 0.316 µM, first compound 0.00316 µM
[10] = second compound 0.316 µM, first compound 0.01 µM
[11] = second compound 0.316 µM, first compound 0.0316 µM
[12] = second compound 0.316 µM, first compound 0.1 µM
[13] = second compound 1 µM, first compound 0.000316 µM
[14] = second compound 1 µM, first compound 0.001 µM
[15] = second compound 1 µM, first compound 0.00316 µM
[16] = second compound 1 µM, first compound 0.01 µM
[17] = second compound 1 µM, first compound 0.0316 µM
[18] = second compound 1 µM, first compound 0.1 µM
[19] = second compound 3.16 µM, first compound 0.000316 µM
[20] = second compound 3.16 µM, first compound 0.001 µM
[21] = second compound 3.16 µM, first compound 0.00316 µM
[22] = second compound 3.16 µM, first compound 0.01 µM
[23] = second compound 3.16 µM, first compound 0.0316 µM
[24] = second compound 3.16 µM, first compound 0.1 µM
[25] = second compound 10 µM, first compound 0.000316 µM
[26] = second compound 10 µM, first compound 0.001 µM
[27] = second compound 10 µM, first compound 0.00316 µM
[28] = second compound 10 µM, first compound 0.01 µM
[29] = second compound 10 µM, first compound 0.0316 µM
[30] = second compound 10 µM, first compound 0.1 µM
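Note: spheroids exposed to agents for 7 days before viability read.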

CC(C)CC(NC(=O)C(Cc1ccccc1)NC(=O)c1cnccn1)B(O)O (stereo not given) + NC1CCC(NC2CC2c2ccccc2)CC1
IC50 (second compound 0.1 µM): 1.3 nM | IC50 (second compound 0.316 µM): 1.34 nM | IC50 (second compound 1 µM): 1.38 nM | IC50 (second compound 3.16 µM): 1.33 nM | IC50 (second compound 10 µM): 1.09 nM | viability, T/C [1]: 149% | viability, T/C [2]: 63.9% | viability, T/C [3]: 2.42% | viability, T/C [4]: 0.24% | viability, T/C [5]: 7.32% | viability, T/C [6]: 3.74% | viability, T/C [7]: 134% | viability, T/C [8]: 65.7% | viability, T/C [9]: 2.51% | viability, T/C [10]: 0.43% | viability, T/C [11]: 7.09% | viability, T/C [12]: 3.61% | viability, T/C [13]: 152% | viability, T/C [14]: 68.4% | viability, T/C [15]: 2.46% | viability, T/C [16]: 0.35% | viability, T/C [17]: 3.66% | viability, T/C [18]: 3.45% | viability, T/C [19]: 137% | viability, T/C [20]: 66.2% | viability, T/C [21]: 1.59% | viability, T/C [22]: 0.23% | viability, T/C [23]: 0.08% | viability, T/C [24]: 0.08% | viability, T/C [25]: 138% | viability, T/C [26]: 54% | viability, T/C [27]: 1.4% | viability, T/C [28]: 0.2% | viability, T/C [29]: 0.09% | viability, T/C [30]: 0.13%

CC(C)CC(NC(=O)CNC(=O)c1cc(Cl)ccc1Cl)B1OC(=O)CC(CC(=O)O)(C(=O)O)O1 (stereo not given) + NC1CCC(NC2CC2c2ccccc2)CC1
IC50 (second compound 0.1 µM): 6.41 nM | IC50 (second compound 0.316 µM): 6.9 nM | IC50 (second compound 1 µM): 6.61 nM | IC50 (second compound 3.16 µM): 6.51 nM | IC50 (second compound 10 µM): 5.07 nM | viability, T/C [1]: 148% | viability, T/C [2]: 136% | viability, T/C [3]: 102% | viability, T/C [4]: 16.9% | viability, T/C [5]: 4.82% | viability, T/C [6]: 8.2% | viability, T/C [7]: 125% | viability, T/C [8]: 126% | viability, T/C [9]: 106% | viability, T/C [10]: 23.3% | viability, T/C [11]: 3.92% | viability, T/C [12]: 3.86% | viability, T/C [13]: 121% | viability, T/C [14]: 131% | viability, T/C [15]: 103% | viability, T/C [16]: 20.4% | viability, T/C [17]: 4.02% | viability, T/C [18]: 6.64% | viability, T/C [19]: 124% | viability, T/C [20]: 117% | viability, T/C [21]: 110% | viability, T/C [22]: 14.4% | viability, T/C [23]: 5.03% | viability, T/C [24]: 1.02% | viability, T/C [25]: 107% | viability, T/C [26]: 107% | viability, T/C [27]: 76.3% | viability, T/C [28]: 12% | viability, T/C [29]: 2.47% | viability, T/C [30]: 0.56%

Nc1ccccc1NC(=O)c1ccc(CNC(=O)OCc2cccnc2)cc1 + NC1CCC(NC2CC2c2ccccc2)CC1
IC50 (second compound 0.1 µM): 106 nM | IC50 (second compound 0.316 µM): 108 nM | IC50 (second compound 1 µM): 123 nM | IC50 (second compound 3.16 µM): 124 nM | IC50 (second compound 10 µM): 90.7 nM | viability, T/C (second compound 0.1 µM, first compound 0.00949 µM): 123% | viability, T/C (second compound 0.1 µM, first compound 0.03 µM): 111% | viability, T/C (second compound 0.1 µM, first compound 0.0949 µM): 50.6% | viability, T/C (second compound 0.1 µM, first compound 0.3 µM): 25.3% | viability, T/C (second compound 0.1 µM, first compound 0.949 µM): 16.7% | viability, T/C (second compound 0.1 µM, first compound 3 µM): 7.75% | viability, T/C (second compound 0.316 µM, first compound 0.00949 µM): 115% | viability, T/C (second compound 0.316 µM, first compound 0.03 µM): 110% | viability, T/C (second compound 0.316 µM, first compound 0.0949 µM): 51.7% | viability, T/C (second compound 0.316 µM, first compound 0.3 µM): 24.6% | viability, T/C (second compound 0.316 µM, first compound 0.949 µM): 15.5% | viability, T/C (second compound 0.316 µM, first compound 3 µM): 8.27% | viability, T/C (second compound 1 µM, first compound 0.00949 µM): 116% | viability, T/C (second compound 1 µM, first compound 0.03 µM): 106% | viability, T/C (second compound 1 µM, first compound 0.0949 µM): 52.9% | viability, T/C (second compound 1 µM, first compound 0.3 µM): 28.6% | viability, T/C (second compound 1 µM, first compound 0.949 µM): 11.4% | viability, T/C (second compound 1 µM, first compound 3 µM): 6.94% | viability, T/C (second compound 3.16 µM, first compound 0.00949 µM): 123% | viability, T/C (second compound 3.16 µM, first compound 0.03 µM): 105% | viability, T/C (second compound 3.16 µM, first compound 0.0949 µM): 54.1% | viability, T/C (second compound 3.16 µM, first compound 0.3 µM): 26.6% | viability, T/C (second compound 3.16 µM, first compound 0.949 µM): 12.5% | viability, T/C (second compound 3.16 µM, first compound 3 µM): 4.09% | viability, T/C (second compound 10 µM, first compound 0.00949 µM): 107% | viability, T/C (second compound 10 µM, first compound 0.03 µM): 89.8% | viability, T/C (second compound 10 µM, first compound 0.0949 µM): 46.5% | viability, T/C (second compound 10 µM, first compound 0.3 µM): 20.5% | viability, T/C (second compound 10 µM, first compound 0.949 µM): 9.82% | viability, T/C (second compound 10 µM, first compound 3 µM): 4.99%

O=C(c1cc(Cc2n[nH]c(=O)c3ccccc23)ccc1F)N1CCN(C(=O)C2CC2)CC1 + NC1CCC(NC2CC2c2ccccc2)CC1
IC50 (second compound 0.1 µM): 630 nM | IC50 (second compound 0.316 µM): 519 nM | IC50 (second compound 1 µM): 563 nM | IC50 (second compound 3.16 µM): 583 nM | IC50 (second compound 10 µM): 335 nM | viability, T/C [5]: 104% | viability, T/C [6]: 113% | viability, T/C (second compound 0.1 µM, first compound 0.316 µM): 78.7% | viability, T/C (second compound 0.1 µM, first compound 1 µM): 31.2% | viability, T/C (second compound 0.1 µM, first compound 3.16 µM): 10.8% | viability, T/C (second compound 0.1 µM, first compound 10 µM): 12.9% | viability, T/C [11]: 111% | viability, T/C [12]: 98.2% | viability, T/C (second compound 0.316 µM, first compound 0.316 µM): 72.1% | viability, T/C (second compound 0.316 µM, first compound 1 µM): 21.8% | viability, T/C (second compound 0.316 µM, first compound 3.16 µM): 8.68% | viability, T/C (second compound 0.316 µM, first compound 10 µM): 10.8% | viability, T/C [17]: 84.7% | viability, T/C [18]: 101% | viability, T/C (second compound 1 µM, first compound 0.316 µM): 67.5% | viability, T/C (second compound 1 µM, first compound 1 µM): 30.7% | viability, T/C (second compound 1 µM, first compound 3.16 µM): 10.9% | viability, T/C (second compound 1 µM, first compound 10 µM): 7.07% | viability, T/C [23]: 100% | viability, T/C [24]: 98.8% | viability, T/C (second compound 3.16 µM, first compound 0.316 µM): 75.5% | viability, T/C (second compound 3.16 µM, first compound 1 µM): 27.5% | viability, T/C (second compound 3.16 µM, first compound 3.16 µM): 7.3% | viability, T/C (second compound 3.16 µM, first compound 10 µM): 5.31% | viability, T/C [29]: 96.1% | viability, T/C [30]: 74.6% | viability, T/C (second compound 10 µM, first compound 0.316 µM): 53.7% | viability, T/C (second compound 10 µM, first compound 1 µM): 26.1% | viability, T/C (second compound 10 µM, first compound 3.16 µM): 7.89% | viability, T/C (second compound 10 µM, first compound 10 µM): 3.97%
